In PubChem BioAssay (NCI) one finds TGI and GI50 data, which are given here for 24 compounds.

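How tested: cells in 96-well plates exposed to compound for 48 hours at five concentrations. Here, GI50 denotes the concentration required for 50% inhibition of growth. TGI denotes the concentration required for complete inhibition of growth.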

Holding throughout (test): NCI anticancer screen, dose series, 48 h
For test [1], the system named is CCRF-CEM leukemia.
The test system of test [2] is OVCAR-3 ovarian.
Test [3] concerns SNB-75 CNS.
Test [4] relates to LOX IMVI melanoma.
Test [5] relates to SF-295 CNS.
Test [6] has as its system HCC-2998 colon.
For test [7], the system named is SK-MEL-28 melanoma.
Test [8] concerns MDA-MB-435.
The test system of test [9] is MCF7 breast.

For `O=C1C2C3C=C4c5ccccc5N(c5ccccc5)C4(C2C(=O)N1c1ccc(Br)cc1)[C@H]1C(=O)N(c2ccc(Br)cc2)C(=O)[C@@H]31` (some centres undefined), the TGI in test [1], in [2], in test [3], in test [4] and in test [5] was above 100 µM each time.

In the case of `S=C=NCCc1ccccc1`, the TGI was 1.54 µM in [6]; 4.25 µM in test [1]; 2.09 µM in test [2]; 11.8 µM in [3]; 0.66 µM in test [4]; 3.47 µM in test [5]. The TGI in [7] worked out at 2.27 µM.

For the compound `CCOc1ccc(O)cc1[P+](c1ccccc1)(c1ccccc1)c1ccccc1`, the TGI in test [6] is 13.4 µM; in test [1], 11.2 µM; in test [2], 11.4 µM; in [3], 25.6 µM; in [4], 13.6 µM; in [5], 19.9 µM. In addition, in test [7], the TGI is 22.6 µM.

As for `COC1OC(C)C2OC(C)(C)OC2C1OC(C)=O` (centres undefined), the TGI in [6], in test [1], in test [2], in [4], in [5] and in test [7] was above 100 µM each time.

As to `C#CCN(C(=O)C(F)(F)F)c1ccc(C(=O)c2ccc(N(CC#C)C(=O)C(F)(F)F)cc2)cc1`, the TGI in [6] was above 100 µM; in test [1], above 100 µM; in test [2] it was 88.6 µM; in test [3] it was above 100 µM; in test [5], above 100 µM; in test [7] it was above 100 µM.

Consider `CC[N+](C)(CC)CC(C)(C)C(=O)/C=C/c1ccc(/C=C/C(=O)C(C)(C)C[N+](C)(CC)CC)cc1`, for which the TGI in test [6], in test [1], in test [2], in [3], in [4] and in test [5] was above 100 µM in each case. Moreover, the TGI in test [7] is above 100 µM.

As for `CC(=O)NNc1nc(C)c(C(=O)NNC(=O)C(=O)Nc2ccc([N+](=O)[O-])cc2C#N)s1`, the TGI in [6], in [1], in [2], in [4] and in [7] was above 100 µM in each case.

For `CCCCCCCCCCCCCC(=O)CSCCNC(=O)CCNC(=O)[C@@H](O)C(C)(C)COP(=O)(O)OP(=O)(O)OCC1OC(n2cnc3c(N)ncnc32)C(O)C1OP(=O)(O)O` (some centres undefined), the TGI in [6] is 35.7 µM; in test [1], 99.2 µM; in test [2], above 100 µM; in [3], 18.2 µM; in [4], 37.2 µM; in test [5], 27.3 µM. This compound also registered a TGI in [7] of 34.3 µM.

In the case of `Cc1ccc(C)c(NC(=O)CC2SC(=Nc3ccccc3Cl)NC2=O)c1` (centres undefined), the TGI in [6], in [1], in [2], in test [3], in [5] and in [7] was above 100 µM each time.

On to `CN(C)CCNC(=O)c1cccc2ccc(-c3ccc(-c4ccccc4)cc3)nc12`, for which the TGI is 3.3 µM in test [6]; 11.5 µM in test [1]; 12 µM in test [2]; 6.11 µM in [3]; 3.09 µM in test [4]; 4.03 µM in test [5]. Moreover, in test [7], the TGI is 3.29 µM.

For the compound `CC1NC(=O)C2=C1C(N)=NC(=O)C2` (centres undefined), the TGI in test [6], in test [2], in test [3], in test [4], in test [5] and in test [7] was above 100 µM each time.

For the compound `C=C1C(=O)O[C@H]2[C@H]1CC/C(COC(=O)NCCc1c[nH]c3ccc(Cl)cc13)=C\CC[C@@]1(C)O[C@@H]21`, the GI50 is 1.96 µM in test [6]; 0.583 µM in test [1]; 1.77 µM in test [2]; 1.33 µM in test [3]; 1.28 µM in test [4]; 1.52 µM in [8]. In addition, the GI50 in [5] is 6.53 µM; in test [7], 1.79 µM. The TGI came out at 4.03 µM in [6]; 3.07 µM in test [1]; 3.83 µM in test [2]; 2.97 µM in [3]; 2.68 µM in test [4]; 3 µM in [8]. Also, the values for the TGI in test [5] and in [7] were 20.3 µM and 3.43 µM, respectively.

Take `O=C(C/C(CCC(=O)N(Cc1ccccc1)Cc1ccccc1)=N/Nc1ccc([N+](=O)[O-])cc1[N+](=O)[O-])c1ccccc1`: the TGI in test [6], in test [1], in test [2], in test [3], in test [4] and in test [5] was above 100 µM in each case. In addition, the TGI in [7] is above 100 µM.

As to `CCN(CC)CCn1[nH]c2c3ccc(=O)cc3sc3c(NCCN)ccc1c32`, the TGI came to 0.719 µM in test [1]; 8.17 µM in test [2]; 3.61 µM in [3]; 1.03 µM in test [4]; 8.07 µM in [5]; 3.28 µM in test [7].

For `CC(C)(C)OC(=O)c1cccnc1/C=N/O`, the TGI in test [1], in test [2], in test [3], in test [4], in test [5] and in test [7] was above 100 µM in each case.

Regarding `COC1C2c3cc4c(cc3CC(C#N)(c3ccccc32)N1C(=O)c1ccccc1)OCO4` (centres undefined), the TGI in test [6], in test [1], in test [2], in test [3], in test [4] and in test [5] was above 100 µM throughout. For the same compound, the TGI in [7] is above 100 µM.

`Cc1ccc(-c2nc([P+](c3ccccc3)(c3ccccc3)c3ccccc3)c(Nc3ccccc3)o2)cc1`: the GI50 in test [6] is 0.659 µM; in test [9], 0.346 µM; in test [1], 0.445 µM; in test [2] it was 0.288 µM; in test [3] it was 1.23 µM; in test [4] it was 0.457 µM. In addition, the values for the GI50 in test [8], in [5] and in test [7] were 0.457 µM, 1.14 µM and 1.22 µM, respectively. Further, the TGI worked out at 2.02 µM in test [6]; 1.43 µM in [9]; 2.28 µM in test [1]; 0.886 µM in test [2]; 2.54 µM in [3]; 1.76 µM in test [4]. The TGI was found to be 1.63 µM in test [8], 2.41 µM in test [5] and 2.52 µM in [7].

As for `C/C=C/COC(=O)CO[N+](=O)[O-]`, the TGI in test [6], in test [1], in [2], in [3], in [4] and in [5] was above 100 µM each time.

Consider `O=c1[nH]c(=O)n(C2OC(CO)C(O)C2O)cc1OCC(F)(F)F` (centres undefined), for which the TGI in test [6], in test [1], in [2], in test [3], in test [4] and in test [5] was above 100 µM each time. In addition, the TGI in [7] is above 100 µM.

Take `Cc1nc2sccn2c1C(=O)NC(=O)Nc1ccc(Cl)cc1`: the TGI in [6] was above 100 µM; in test [1], above 100 µM; in test [2], above 100 µM; in test [3], 50.8 µM; in test [4], above 100 µM; in [5], above 100 µM. Also, the TGI in [7] was above 100 µM.

Regarding `CCOC(=O)C(CNc1ccc(O)cc1)NC(=O)c1ccccc1` (centres undefined), the TGI in test [6], in [1], in [2], in [3], in test [4] and in test [5] was above 100 µM in each case. For the same compound, the TGI in test [7] was above 100 µM.

Regarding `CCOC(=O)C1([Se]c2ccccc2)CCCC1=O` (centres undefined), the TGI in [6] is above 100 µM; in test [1], 56.8 µM; in [2], 98 µM; in test [3], 69.1 µM; in test [4], 26.7 µM; in test [5], above 100 µM. The TGI in [7] came to 41.9 µM.

Regarding `O=C(/C=C/C12c3ccccc3C(c3ccccc31)C1C(=O)NC(=O)C12)c1ccc(Cl)cc1` (centres undefined), the GI50 in test [6] is 1.69 µM; in [9], 1.34 µM; in [1], 1.66 µM; in test [2] it was 1.63 µM; in test [3] it was 1.1 µM; in test [4] it was 1.6 µM. In addition, the GI50 in [8] was 1.68 µM; in [7], 1.8 µM. The TGI in test [6] is 3.37 µM; in test [9], 4.05 µM; in test [1], above 100 µM; in test [2] it was 3.26 µM; in [3] it was 2.32 µM; in [4], 3 µM. The TGI amounted to 3.5 µM in [8] and 3.37 µM in test [7].

`COc1cc2c(cc1C1=NC(C)(C)CO1)OCO2`: the TGI in [1], in [2], in test [3], in test [5] and in test [7] was above 100 µM in each case.
